Source: ChEMBL document CHEMBL4393671, “Design of a Cyclin G Associated Kinase (GAK)/Epidermal Growth Factor Receptor (EGFR) Inhibitor Set to Interrogate the Relationship of EGFR and GAK in Chordoma” (J Med Chem, 2019)
Calls of active or inactive are those of the source. No cut-off for these calls is given here.

Key:
cells [1] = assay type: functional, cell-based; details: Homo sapiens, UCH1, 72 h
Description: Antiproliferative activity against human UCH1 cells measured after 72 hrs by alamar blue assay

cells [2] = assay type: functional, cell-based; details: Homo sapiens, UCH2, 72 h
Description: Antiproliferative activity against human UCH2 cells measured after 72 hrs by alamar blue assay

cells [3] = assay type: ADME, cell-based; details: Homo sapiens, WS1, 72 h
Description: Cytotoxicity against human WS1 cells measured after 72 hrs by alamar blue assay

[4] = target: T1, Epidermal growth factor receptor (Homo sapiens, UniProt P00533); assay type: cell-based;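 for IC50: human A431 cells pretreated 90 min, then EGF stimulated, sandwich ELISA measured decrease in EGF-induced receptor autophosphorylation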;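 for Kd: KINOMEscan competition binding with recombinant partial wild-type human EGFR (residues R669–V1011) produced in bacteria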
Description: Inhibition of EGFR in human A431 cells assessed as reduction in EGF-stimulated EGFR autophosphorylation preincuabted for 90 mins followed by EGF-stimulation by sandwich-ELISA

[5] = target: T1, Epidermal growth factor receptor; test: Binding affinity to wild-type human partial length EGFR (R669 to V1011 residues) expressed in bacterial expression system at 1 uM by Kinomescan method relative to control
[6] = target: T1, Epidermal growth factor receptor
Description: Binding affinity to wild-type human partial length EGFR (R669 to V1011 residues) expressed in bacterial expression system by Kinomescan method

[7] = target: T2, Cyclin-G-associated kinase (Homo sapiens) (UniProt O14976); test: Inhibition of tracer 5 binding to human N-terminal nano luciferase-fused GAK expressed in HEK293 cells at 5 uM measured after 2 hrs by nanoBRET assay relative to control; assay type: cell-based
T2 sequence (whole entry): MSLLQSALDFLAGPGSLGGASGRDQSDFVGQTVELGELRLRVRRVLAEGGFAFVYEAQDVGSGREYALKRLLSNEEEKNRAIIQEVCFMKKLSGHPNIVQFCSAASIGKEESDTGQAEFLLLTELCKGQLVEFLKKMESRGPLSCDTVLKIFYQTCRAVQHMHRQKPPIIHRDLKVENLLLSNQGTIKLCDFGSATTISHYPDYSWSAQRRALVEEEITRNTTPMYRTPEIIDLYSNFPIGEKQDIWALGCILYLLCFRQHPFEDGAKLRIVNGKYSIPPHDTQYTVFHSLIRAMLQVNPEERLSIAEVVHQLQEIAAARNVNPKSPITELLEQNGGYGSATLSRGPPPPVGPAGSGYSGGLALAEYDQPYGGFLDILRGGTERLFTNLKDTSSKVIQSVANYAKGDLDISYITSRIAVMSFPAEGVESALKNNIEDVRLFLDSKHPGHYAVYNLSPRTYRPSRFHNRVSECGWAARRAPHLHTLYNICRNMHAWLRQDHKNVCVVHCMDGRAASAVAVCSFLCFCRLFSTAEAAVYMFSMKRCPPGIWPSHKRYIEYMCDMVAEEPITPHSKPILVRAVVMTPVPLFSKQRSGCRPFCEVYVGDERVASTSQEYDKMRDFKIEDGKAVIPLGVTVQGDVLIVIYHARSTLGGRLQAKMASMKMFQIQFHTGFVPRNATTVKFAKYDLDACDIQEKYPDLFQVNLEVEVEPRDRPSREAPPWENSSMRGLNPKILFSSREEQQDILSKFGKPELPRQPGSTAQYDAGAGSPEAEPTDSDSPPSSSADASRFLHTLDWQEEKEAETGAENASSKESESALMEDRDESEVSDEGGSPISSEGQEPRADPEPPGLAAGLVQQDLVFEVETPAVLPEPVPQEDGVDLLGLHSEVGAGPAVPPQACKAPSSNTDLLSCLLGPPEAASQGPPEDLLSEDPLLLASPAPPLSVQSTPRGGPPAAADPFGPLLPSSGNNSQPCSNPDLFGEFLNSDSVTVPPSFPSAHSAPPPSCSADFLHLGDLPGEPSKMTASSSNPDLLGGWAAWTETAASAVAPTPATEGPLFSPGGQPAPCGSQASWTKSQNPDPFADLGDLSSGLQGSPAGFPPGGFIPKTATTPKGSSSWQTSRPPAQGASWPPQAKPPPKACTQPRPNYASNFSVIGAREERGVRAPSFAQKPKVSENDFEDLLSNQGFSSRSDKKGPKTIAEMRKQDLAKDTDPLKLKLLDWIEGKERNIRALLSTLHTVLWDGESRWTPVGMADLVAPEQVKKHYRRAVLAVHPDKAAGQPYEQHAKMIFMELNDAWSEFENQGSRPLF

[8] = target: T3, Cyclin-G-associated kinase (Homo sapiens, UniProt O14976); test: Binding affinity to wild-type human partial length GAK (G13 to Y338 residues) expressed in bacterial expression system by Kinomescan method
T3 sequence (O14976 whole entry): T2 sequence (whole entry)

[9] = target: T3, Cyclin-G-associated kinase; test: Inhibition of tracer 5 binding to human N-terminal nano luciferase-fused GAK expressed in HEK293 cells measured after 2 hrs by nanoBRET assay; assay type: cell-based
[10] = target: Mitotic checkpoint serine/threonine-protein kinase BUB1 (Homo sapiens) (UniProt O43683); test: Binding affinity to BUB1 in human SUM159 cell lysates by multiplexed inhibitor bead profiling-based LC-MS/MS analysis; assay type: subcellular; details: Lysate
cells [11] = assay type: functional, cell-based; details: Homo sapiens, 72 h
Description: Antiproliferative activity against human UCH12 cells measured after 72 hrs by alamar blue assay

[12] = target: T2, Cyclin-G-associated kinase (Homo sapiens); test: Binding affinity to GAK in human SUM159 cell lysates by multiplexed inhibitor bead profiling-based LC-MS/MS analysis; assay type: subcellular; details: Lysate
[13] = target: Pyruvate kinase PKM (Homo sapiens) (UniProt P14618); test: Binding affinity to PKM in human SUM159 cell lysates by multiplexed inhibitor bead profiling-based LC-MS/MS analysis; assay type: subcellular; details: Lysate
cells [14] = assay type: functional, cell-based; details: Homo sapiens, 72 h; remark: listed apart in the source
Description: Antiproliferative activity against human UCH14 cells measured after 72 hrs by alamar blue assay

cells [15] = assay type: functional, cell-based; details: Homo sapiens, 72 h; remark: listed apart in the source
Description: Antiproliferative activity against human CH22 cells measured after 72 hrs by alamar blue assay

cells [16] = assay type: functional, cell-based; details: Homo sapiens, 72 h; remark: listed apart in the source
Description: Antiproliferative activity against human UCH7 cells measured after 72 hrs by alamar blue assay

T1 sequence (P00533 whole entry, the tested form may be a part): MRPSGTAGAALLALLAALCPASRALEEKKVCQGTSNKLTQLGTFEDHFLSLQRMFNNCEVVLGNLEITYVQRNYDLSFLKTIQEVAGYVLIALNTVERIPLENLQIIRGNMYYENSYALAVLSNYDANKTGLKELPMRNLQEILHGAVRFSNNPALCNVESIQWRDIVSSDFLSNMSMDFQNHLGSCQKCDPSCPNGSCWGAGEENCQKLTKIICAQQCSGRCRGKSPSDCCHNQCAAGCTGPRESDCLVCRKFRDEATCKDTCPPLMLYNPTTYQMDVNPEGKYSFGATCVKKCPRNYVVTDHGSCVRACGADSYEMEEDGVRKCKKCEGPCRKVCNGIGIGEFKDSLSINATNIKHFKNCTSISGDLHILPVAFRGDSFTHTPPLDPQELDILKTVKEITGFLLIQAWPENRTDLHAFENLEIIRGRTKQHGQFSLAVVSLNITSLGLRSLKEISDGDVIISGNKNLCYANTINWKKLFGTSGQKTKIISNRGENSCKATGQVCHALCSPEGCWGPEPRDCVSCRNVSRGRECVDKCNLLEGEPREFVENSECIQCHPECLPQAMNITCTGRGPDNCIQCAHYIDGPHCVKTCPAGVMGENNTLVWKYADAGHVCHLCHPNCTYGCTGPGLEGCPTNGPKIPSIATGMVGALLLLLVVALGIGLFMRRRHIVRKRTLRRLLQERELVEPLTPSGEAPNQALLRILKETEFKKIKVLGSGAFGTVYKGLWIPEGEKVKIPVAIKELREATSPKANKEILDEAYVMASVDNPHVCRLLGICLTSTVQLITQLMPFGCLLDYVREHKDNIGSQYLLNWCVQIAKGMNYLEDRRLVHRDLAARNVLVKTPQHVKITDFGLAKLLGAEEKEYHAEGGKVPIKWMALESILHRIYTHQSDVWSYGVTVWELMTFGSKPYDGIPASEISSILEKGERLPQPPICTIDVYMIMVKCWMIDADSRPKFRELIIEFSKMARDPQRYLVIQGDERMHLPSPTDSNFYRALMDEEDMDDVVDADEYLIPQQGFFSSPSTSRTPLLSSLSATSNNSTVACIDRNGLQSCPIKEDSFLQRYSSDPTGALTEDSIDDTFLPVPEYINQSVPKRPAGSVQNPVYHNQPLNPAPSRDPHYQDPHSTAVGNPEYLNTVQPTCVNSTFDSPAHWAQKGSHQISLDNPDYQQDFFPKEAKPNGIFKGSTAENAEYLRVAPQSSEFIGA
Pyruvate kinase PKM (Homo sapiens), sequence (P14618 2-531 limits assumed): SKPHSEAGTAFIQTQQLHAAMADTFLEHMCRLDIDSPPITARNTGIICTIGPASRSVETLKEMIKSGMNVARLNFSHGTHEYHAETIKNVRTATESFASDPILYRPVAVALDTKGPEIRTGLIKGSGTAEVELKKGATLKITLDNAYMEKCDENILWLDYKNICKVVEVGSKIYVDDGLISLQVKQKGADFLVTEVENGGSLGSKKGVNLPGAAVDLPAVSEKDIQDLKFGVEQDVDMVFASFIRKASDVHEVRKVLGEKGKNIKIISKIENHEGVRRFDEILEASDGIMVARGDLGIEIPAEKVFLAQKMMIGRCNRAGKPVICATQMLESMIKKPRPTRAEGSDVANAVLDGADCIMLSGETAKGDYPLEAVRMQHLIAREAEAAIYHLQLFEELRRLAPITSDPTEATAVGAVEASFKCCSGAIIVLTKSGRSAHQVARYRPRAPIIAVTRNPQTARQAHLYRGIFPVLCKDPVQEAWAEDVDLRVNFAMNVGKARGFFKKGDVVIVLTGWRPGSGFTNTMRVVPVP
Mitotic checkpoint serine/threonine-protein kinase BUB1 (Homo sapiens), sequence (O43683 whole entry, looked up): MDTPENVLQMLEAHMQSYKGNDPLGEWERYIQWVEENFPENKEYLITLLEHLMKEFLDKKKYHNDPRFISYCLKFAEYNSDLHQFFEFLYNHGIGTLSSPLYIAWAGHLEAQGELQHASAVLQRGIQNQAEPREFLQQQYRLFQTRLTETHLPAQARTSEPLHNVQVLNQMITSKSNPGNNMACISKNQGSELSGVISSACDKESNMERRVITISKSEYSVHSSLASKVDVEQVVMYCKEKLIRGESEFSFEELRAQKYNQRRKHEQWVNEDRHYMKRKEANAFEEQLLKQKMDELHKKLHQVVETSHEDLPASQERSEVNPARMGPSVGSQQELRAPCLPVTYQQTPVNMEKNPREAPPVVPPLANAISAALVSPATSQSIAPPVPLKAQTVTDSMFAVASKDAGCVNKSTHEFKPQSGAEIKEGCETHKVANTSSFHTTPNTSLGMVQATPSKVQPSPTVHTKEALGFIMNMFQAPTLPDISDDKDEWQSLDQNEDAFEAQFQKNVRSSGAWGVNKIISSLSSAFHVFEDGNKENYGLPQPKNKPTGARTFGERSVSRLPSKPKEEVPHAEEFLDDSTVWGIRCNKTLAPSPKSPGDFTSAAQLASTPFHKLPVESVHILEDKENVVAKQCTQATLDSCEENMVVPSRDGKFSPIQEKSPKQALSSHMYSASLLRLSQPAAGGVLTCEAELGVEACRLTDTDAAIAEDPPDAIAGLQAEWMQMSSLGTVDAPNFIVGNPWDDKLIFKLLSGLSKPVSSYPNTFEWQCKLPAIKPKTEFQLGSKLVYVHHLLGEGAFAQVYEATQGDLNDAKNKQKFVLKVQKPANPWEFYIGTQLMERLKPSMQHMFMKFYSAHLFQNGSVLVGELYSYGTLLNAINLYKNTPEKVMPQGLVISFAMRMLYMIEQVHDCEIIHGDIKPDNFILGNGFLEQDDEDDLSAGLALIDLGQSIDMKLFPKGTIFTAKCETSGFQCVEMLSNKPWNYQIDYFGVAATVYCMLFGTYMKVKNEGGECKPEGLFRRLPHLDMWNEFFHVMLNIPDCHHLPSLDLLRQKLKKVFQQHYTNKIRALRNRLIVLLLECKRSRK

Row | SMILES | IC50 (cells [1]) | IC50 (cells [2]) | IC50 (cells [3]) | IC50 [4] | also measured
1 | CN1CCN(CCOc2cc(OC3CCOCC3)c3c(Nc4c(Cl)ccc5c4OCO5)ncnc3c2)CC1 [SARACATINIB] | 4.3 µM | 28 µM | – | – | –
2 | CCOc1cc2ncc(C#N)c(Nc3ccc(F)c(Cl)c3)c2cc1NC(=O)/C=C/CN(C)C [PELITINIB] | 0.09 µM | 1.6 µM | – | – | –
3 | COc1cc(Nc2ccnc3ccc(C(F)(F)F)cc23)cc(OC)c1OC | > 50 µM | 33 µM | 21 µM | > 50 µM | Activity [5]: < 50%
4 | C#Cc1cccc(Nc2c(C#N)cnc3cc(OC)c(OC)cc23)c1 | 17 µM | > 50 µM | > 50 µM | 0.061 µM | Kd [6]: 0.0018 µM; IC50 [9]: 0.031 µM; Kd [8]: 0.0026 µM
5 | COc1cc2nccc(Nc3cccc(Br)c3)c2cc1OC | 3.6 µM | 7.9 µM | 2.9 µM | – | Activity [10]: Active; IC50 (cells [11]): > 50 µM; Activity [12]: Active; IC50 [9]: 0.51 µM; Activity [13]: Active; IC50 (cells [14]): > 50 µM; IC50 (cells [15]): 6.5 µM; IC50 (cells [16]): > 50 µM; Kd [8]: 0.24 µM
6 | COc1cc(N(C)c2ccnc3ccc(C(F)(F)F)cc23)cc(OC)c1OC | > 50 µM | > 50 µM | > 50 µM | 2.2 µM | inhibition [7]: 7%
7 | COc1cc(Nc2cc(C)nc3ccc(C(F)(F)F)cc23)cc(OC)c1OC | 37 µM | > 50 µM | 49 µM | > 50 µM | inhibition [7]: 0%
8 | COCCOc1cc2ncnc(Nc3cc(OC)c(OC)c(OC)c3)c2cc1OCCOC | 25 µM | > 50 µM | > 50 µM | 2.4 µM | Kd [6]: 0.053 µM; IC50 [9]: 2.6 µM; Kd [8]: 0.15 µM

The next lines start with results.

Row | IC50 (cells [1]) | IC50 (cells [2]) | IC50 (cells [3]) | IC50 [4] | SMILES | also measured
9 | 0.08 µM | 17 µM | – | – | C=CC(=O)Nc1cc2c(Nc3ccc(F)c(Cl)c3)ncnc2cc1OCCCN1CCOCC1 [CANERTINIB] | –
10 | > 50 µM | > 50 µM | 11 µM | > 50 µM | COc1cc(Nc2ccnc3ccc(Br)cc23)cc(OC)c1OC | Activity [5]: < 50%
11 | 0.42 µM | 5.7 µM | – | – | CNC(=O)CN1CCC(Oc2cc3c(Nc4cccc(Cl)c4F)ncnc3cc2OC)CC1 [SAPITINIB] | –
12 | 50 µM | > 50 µM | 45 µM | > 50 µM | COc1cc(Nc2ncnc3ccc(C(F)(F)F)cc23)cc(OC)c1OC | Kd [6]: 6.1 µM; inhibition [7]: 60%; Kd [8]: 0.19 µM
13 | 5.5 µM | 2.4 µM | – | – | CCOc1cc2ncc(C#N)c(Nc3ccc(OCc4ccccn4)c(Cl)c3)c2cc1NC(=O)/C=C/CN(C)C [NERATINIB] | –
14 | 0.05 µM | 2.7 µM | – | – | COc1cc2ncnc(Nc3ccc(F)c(Cl)c3)c2cc1NC(=O)/C=C/CN1CCCCC1 [DACOMITINIB ANHYDROUS] | –
